This note sets out measurements from publication PMC9851200, “Multiparameter phenotypic screening for endogenous TFEB and TFE3 translocation identifies novel chemical series modulating lysosome function” (Autophagy, 2022).

Molecules are shown by their SMILES. Read-outs that look alike come from different tables or passages of the source.

For one data set, the system named is endogenous TFEB. As to the kind of experiment: TFEB nuclear translocation, immunocytochemistry high-content imaging. The format is cell-based.
Data set [1] has as its system SH-SY5Y cells. As to the kind of experiment: Nuclear count from microscopy images (cellular growth and toxicity). Also: reference of the scale not given here.
Another data set concerns endogenous TFE3. Kind of data set: TFE3 nuclear translocation, immunocytochemistry high-content imaging. The format is cell-based.
Data set [2] deals with SH-SY5Y cells.
Source text: The PKIS2 Library was supplied by The Structural Genomics Consortium at the University of North Carolina at Chapel Hill.
For data set [3], the system named is SH-SY5Y cells. Kind of data set: AK (adenylate kinase) release ToxiLight cytotoxicity assay. Also: reference of the scale not given here.
The mark [4] stands for this setting: PKIS2 primary screening, DQ Red BSA intensity.
[5] abbreviates: PKIS2 primary screening, DQ Red BSA spot count.
For DQ Intensity in this document: reference of the scale not given here.
For DQ Spot in this document: reference of the scale not given here.

Turning to `CCn1c(-c2ccccn2)nc2cnccc21` [UNC10225156A], the TFEB % in the data set with endogenous TFEB (PKIS2 primary screening) is given as 4.22%. Also, the “Nuclear Count” value in the data set with SH-SY5Y cells [1] (PKIS2 primary screening) is 94.90. In the data set with endogenous TFE3 (PKIS2 primary screening), this compound gave a TFE3 % of 11.71%. Further, in the data set on SH-SY5Y cells [2] (PKIS2 primary screening), the “DQ Intensity” value is given as 124.07 and the “DQ Spot” value is listed as 112.23. In the data set with SH-SY5Y cells [3] (PKIS2 primary screening), this compound displayed an AK of 96.85.
`COc1ccc(CNC(=O)NC2CCN(c3ccnc(Nc4ccc(F)cc4)n3)CC2)cc1` [GSK1379788] gave a TFEB % with endogenous TFEB (PKIS2 primary screening) of 3.80%. Also, in the data set with SH-SY5Y cells [1] (PKIS2 primary screening), the “Nuclear Count” value worked out at 82.62. The compound also had a TFE3 % in the data set with endogenous TFE3 (PKIS2 primary screening) of 14.89%. Further, the “DQ Intensity” value in the data set with SH-SY5Y cells [2] (setting [4]) is reported as 86.32. For the same compound, the “DQ Spot” value with SH-SY5Y cells [2] (setting [5]) was 97.11. This compound also came in with an AK with SH-SY5Y cells [3] (PKIS2 primary screening) of 114.99.
Take `COc1ccc(Nc2nccc(N3CCC(NC(=O)Nc4cc(C)ccc4C)C3)n2)cc1` (stereo not drawn) [GSK1379741]: in the data set on endogenous TFEB (PKIS2 primary screening), the TFEB % amounted to 3.59%. Besides, the “Nuclear Count” value with SH-SY5Y cells [1] (PKIS2 primary screening) is listed as 115.70. For the same compound, the TFE3 % in the data set with endogenous TFE3 (PKIS2 primary screening) worked out at 9.28%. Also, the “DQ Intensity” value in the data set with SH-SY5Y cells [2] (setting [4]) is given as 91.14. The “DQ Spot” value with SH-SY5Y cells [2] (setting [5]) was found to be 90.28. Also, the AK in the data set on SH-SY5Y cells [3] (PKIS2 primary screening) worked out at 100.67.
`O=C(O)C(F)(F)F.O=c1[nH]ccc2nc(N[C@@H]3CCNC3)nc(Nc3cc(Cl)cc(Cl)c3)c12` [UNC10225257A]: the TFEB % with endogenous TFEB (PKIS2 primary screening) was determined as 7.01%. Besides, the “Nuclear Count” value in the data set on SH-SY5Y cells [1] (PKIS2 primary screening) stood at 111.57. Further, the TFE3 % in the data set on endogenous TFE3 (PKIS2 primary screening) turned out to be 8.28%. In the data set with SH-SY5Y cells [2] (PKIS2 primary screening), the “DQ Intensity” value is reported as 65.99 and the “DQ Spot” value turned out to be 83.26. The compound further showed an AK in the data set on SH-SY5Y cells [3] (PKIS2 primary screening) of 117.20.
`O=c1[nH]cc(-c2ccc(N3CCOCC3)cc2)c2sc(-c3cn[nH]c3)cc12` [UNC10225158A]: in the data set with endogenous TFEB (PKIS2 primary screen), the TFEB % is reported as 7.60%. The “Nuclear Count” value in the data set on SH-SY5Y cells [1] (PKIS2 primary screen) worked out at 78.86. Moreover, in the data set with endogenous TFE3 (PKIS2 primary screen), the TFE3 % stood at 10.30%. In the data set with SH-SY5Y cells [2] (PKIS2 primary screen, DQ Red BSA intensity), the “DQ Intensity” value is recorded as 68.86. In addition, the “DQ Spot” value with SH-SY5Y cells [2] (PKIS2 primary screen, DQ Red BSA spot count) was 89.34. In the data set on SH-SY5Y cells [3] (PKIS2 primary screen), this compound registered an AK of 90.80.
Consider `N#CCc1ccc(Nc2nccc(Nc3ccc(Oc4ccccc4)cc3)n2)cc1` [GW639905], for which the TFEB % in the data set with endogenous TFEB (PKIS2 primary screening) worked out at 8.66%. Also, in the data set on SH-SY5Y cells [1] (PKIS2 primary screening), the “Nuclear Count” value is given as 107.11. For the same compound, the TFE3 % with endogenous TFE3 (PKIS2 primary screening) was 15.01%. Moreover, in the data set with SH-SY5Y cells [2] (setting [4]), the “DQ Intensity” value was determined as 108.02. For the same compound, the “DQ Spot” value with SH-SY5Y cells [2] (setting [5]) was 113.65. The compound also displayed an AK in the data set with SH-SY5Y cells [3] (PKIS2 primary screening) of 115.45.
The compound `COc1cc(Nc2nccc(N3CCC(NC(=O)c4cccc(NC(C)=O)c4)C3)n2)cc(OC)c1OC` (stereo not drawn) [GSK1379754] returned a TFEB % in the data set on endogenous TFEB (PKIS2 primary screening) of 3.28%. For the same compound, the “Nuclear Count” value in the data set on SH-SY5Y cells [1] (PKIS2 primary screening) is recorded as 143.24. The TFE3 % in the data set on endogenous TFE3 (PKIS2 primary screening) stood at 7.67%. In addition, the “DQ Intensity” value with SH-SY5Y cells [2] (setting [4]) is recorded as 91.71. The “DQ Spot” value in the data set on SH-SY5Y cells [2] (setting [5]) was 95.86. This compound registered an AK in the data set with SH-SY5Y cells [3] (PKIS2 primary screening) of 115.02.
In turn, `C[C@@H]1CC[C@H](C(=O)NC2CCCCC2)CN1c1cc(-c2ccc3c(N)n[nH]c3c2)nc(N)n1` [GSK2291363] registered a TFEB % in the data set with endogenous TFEB (PKIS2 primary screening) of 3.73%. Moreover, the “Nuclear Count” value in the data set with SH-SY5Y cells [1] (PKIS2 primary screening) was 117.58. Moreover, the TFE3 % in the data set on endogenous TFE3 (PKIS2 primary screening) came out at 16.02%. The “DQ Intensity” value with SH-SY5Y cells [2] (setting [4]) turned out to be 117.06. For the same compound, the “DQ Spot” value in the data set on SH-SY5Y cells [2] (setting [5]) was determined as 112.54. In the data set with SH-SY5Y cells [3] (PKIS2 primary screening), this compound yielded an AK of 87.12.
In turn, `Cn1cc(-c2ccc3c(c2)CCN3C(=O)Cc2cc(F)cc(F)c2F)c2c(N)ncnc21` [UNC10225071A] came in with a TFEB % in the data set on endogenous TFEB (PKIS2 primary screening) of 5.81%. Moreover, the “Nuclear Count” value in the data set with SH-SY5Y cells [1] (PKIS2 primary screening) was 91.42. In the data set on endogenous TFE3 (PKIS2 primary screening), this compound gave a TFE3 % of 19.64%. Besides, in the data set on SH-SY5Y cells [2] (PKIS2 primary screening), the “DQ Intensity” value is on record as 128.82 and the “DQ Spot” value is on record as 133.47. In addition, in the data set on SH-SY5Y cells [3] (PKIS2 primary screening), the AK is recorded as 97.57.
`Clc1ccc(-c2cc(-c3c[nH]nc3-c3ccccn3)ccn2)cc1` [UNC10225057A] yielded a TFEB % in the data set with endogenous TFEB (PKIS2 primary screening) of 5.33%. The “Nuclear Count” value in the data set with SH-SY5Y cells [1] (PKIS2 primary screening) came out at 99.07. For the same compound, the TFE3 % in the data set on endogenous TFE3 (PKIS2 primary screening) came to 9.30%. Besides, in the data set on SH-SY5Y cells [2] (setting [4]), the “DQ Intensity” value amounted to 80.85. In addition, the “DQ Spot” value in the data set with SH-SY5Y cells [2] (setting [5]) was 100.06. For the same compound, in the data set with SH-SY5Y cells [3] (PKIS2 primary screening), the AK is 69.86.
In the data set with endogenous TFEB (PKIS2 primary screening), `COC(=O)Nc1nc2ccc(Oc3ccc(NC(=O)Nc4cc(C(F)(F)F)ccc4F)cc3)cc2n1C` [GW692089] registered a TFEB % of 7.12%. The “Nuclear Count” value in the data set on SH-SY5Y cells [1] (PKIS2 primary screening) worked out at 60.83. The compound further yielded a TFE3 % in the data set on endogenous TFE3 (PKIS2 primary screening) of 18.60%. Moreover, the “DQ Intensity” value in the data set on SH-SY5Y cells [2] (setting [4]) is on record as 156.96. In addition, the “DQ Spot” value in the data set with SH-SY5Y cells [2] (setting [5]) was determined as 122.99. In the data set on SH-SY5Y cells [3] (PKIS2 primary screening), this compound registered an AK of 128.42.
For the compound `Cc1ccc2c(-c3ccnc(Nc4ccc(C(F)(F)F)cc4)n3)cnn2n1` [UNC10225224A], the TFEB % in the data set on endogenous TFEB (PKIS2 primary screening) is reported as 10.89%. In addition, in the data set on SH-SY5Y cells [1] (PKIS2 primary screening), the “Nuclear Count” value amounted to 89.44. The compound further came in with a TFE3 % with endogenous TFE3 (PKIS2 primary screening) of 15.88%. Further, in the data set on SH-SY5Y cells [2] (PKIS2 primary screening), the “DQ Intensity” value was determined as 85.12 and the “DQ Spot” value was 93.95. The AK in the data set on SH-SY5Y cells [3] (PKIS2 primary screening) was determined as 79.85.
For `FC(F)(F)c1cc(Nc2nccc(-c3c(-c4ccc(Cl)cc4)nn4ncccc34)n2)ccc1Cl` [UNC10225192A], the TFEB % with endogenous TFEB (PKIS2 primary screening) is given as 6.87%. Also, the “Nuclear Count” value with SH-SY5Y cells [1] (PKIS2 primary screening) came to 86.86. This compound also had a TFE3 % in the data set on endogenous TFE3 (PKIS2 primary screening) of 11.31%. In addition, in the data set on SH-SY5Y cells [2] (PKIS2 primary screening), the “DQ Intensity” value was 96.76 and the “DQ Spot” value came to 105.34. For the same compound, the AK with SH-SY5Y cells [3] (PKIS2 primary screening) was 128.18.
The compound `COc1cc2c(Nc3cccc(NC(=O)c4ccccc4)c3)ncnc2cc1OCCCN1CCOCC1` [UNC10225271A] displayed a TFEB % in the data set on endogenous TFEB (PKIS2 primary screening) of 3.87%. Further, the “Nuclear Count” value in the data set with SH-SY5Y cells [1] (PKIS2 primary screening) was determined as 122.91. Also, the TFE3 % in the data set with endogenous TFE3 (PKIS2 primary screening) amounted to 10.54%. Further, the “DQ Intensity” value in the data set with SH-SY5Y cells [2] (setting [4]) amounted to 90.70. Besides, in the data set on SH-SY5Y cells [2] (setting [5]), the “DQ Spot” value stood at 104.52. In the data set on SH-SY5Y cells [3] (PKIS2 primary screening), this compound gave an AK of 98.71.
